# “And” between values parts separate entries of the source, which are not always exact repeats. Equal values may be shown once. Where a name gives a salt, the structure may show the parent alone.
# How the values were obtained:
# [1] = target: T1, GST-tagged truncated LRRK2 containing residues 970 to 2527 (Homo sapiens, UniProt Q5S007); experiment: In vitro LRRKtide peptide-substrate kinase assay, single dose testing (10 μM); assay type: biochemical; conditions: for % LRRKtide phosphorylation relative to solvent: LRRKtide assay @ 10 μM inhibitor, GST-LRRK2 970-2527, 10 μM ATP, mean, N = 3, solvent control = 100%
# T1 construct: GST-tagged truncated LRRK2 containing residues 970 to 2527 (Life Technologies); purchased Life Technologies
# T1 sequence (Q5S007 970-2527): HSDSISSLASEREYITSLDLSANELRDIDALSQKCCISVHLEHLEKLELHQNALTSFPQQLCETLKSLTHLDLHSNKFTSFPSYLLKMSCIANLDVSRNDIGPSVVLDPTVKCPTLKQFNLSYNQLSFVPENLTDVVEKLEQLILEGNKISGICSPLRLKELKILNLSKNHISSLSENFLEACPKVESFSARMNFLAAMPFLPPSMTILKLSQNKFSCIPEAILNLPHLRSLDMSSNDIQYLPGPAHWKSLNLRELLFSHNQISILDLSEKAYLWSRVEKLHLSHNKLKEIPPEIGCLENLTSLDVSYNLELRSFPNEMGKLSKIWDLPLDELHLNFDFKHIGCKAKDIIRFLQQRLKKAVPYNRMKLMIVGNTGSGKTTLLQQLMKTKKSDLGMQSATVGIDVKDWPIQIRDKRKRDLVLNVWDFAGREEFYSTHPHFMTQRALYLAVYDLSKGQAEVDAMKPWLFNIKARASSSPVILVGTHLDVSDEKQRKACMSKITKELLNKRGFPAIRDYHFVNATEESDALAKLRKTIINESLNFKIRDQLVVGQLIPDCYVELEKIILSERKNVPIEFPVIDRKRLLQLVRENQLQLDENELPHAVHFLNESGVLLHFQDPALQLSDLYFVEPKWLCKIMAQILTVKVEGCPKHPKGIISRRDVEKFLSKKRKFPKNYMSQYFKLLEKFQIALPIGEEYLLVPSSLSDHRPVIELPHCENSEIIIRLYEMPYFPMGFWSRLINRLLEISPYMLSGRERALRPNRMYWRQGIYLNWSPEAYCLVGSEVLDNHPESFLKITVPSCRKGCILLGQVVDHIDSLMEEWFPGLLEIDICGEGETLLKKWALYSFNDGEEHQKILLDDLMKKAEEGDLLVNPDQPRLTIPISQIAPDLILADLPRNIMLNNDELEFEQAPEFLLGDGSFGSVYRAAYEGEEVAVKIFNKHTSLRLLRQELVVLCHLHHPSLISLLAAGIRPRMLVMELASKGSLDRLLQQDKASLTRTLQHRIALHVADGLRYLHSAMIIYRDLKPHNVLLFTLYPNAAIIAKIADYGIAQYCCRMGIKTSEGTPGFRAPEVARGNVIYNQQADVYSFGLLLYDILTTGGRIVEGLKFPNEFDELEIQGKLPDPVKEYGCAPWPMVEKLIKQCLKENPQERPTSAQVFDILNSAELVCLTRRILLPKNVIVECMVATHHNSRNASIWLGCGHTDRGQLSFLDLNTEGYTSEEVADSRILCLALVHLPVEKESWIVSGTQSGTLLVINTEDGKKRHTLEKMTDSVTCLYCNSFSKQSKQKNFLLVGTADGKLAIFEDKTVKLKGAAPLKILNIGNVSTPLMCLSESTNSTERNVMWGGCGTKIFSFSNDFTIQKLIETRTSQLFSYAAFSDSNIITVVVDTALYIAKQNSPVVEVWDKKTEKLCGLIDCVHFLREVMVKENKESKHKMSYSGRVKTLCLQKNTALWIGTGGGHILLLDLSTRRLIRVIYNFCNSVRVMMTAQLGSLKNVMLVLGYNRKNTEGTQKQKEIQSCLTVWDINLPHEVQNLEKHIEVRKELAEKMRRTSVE
# [2] = target: T2, LRRK2 phospho-Ser935 (Homo sapiens, UniProt Q5S007); experiment: Cellular LRRK2 phosphoserine 935 dephosphorylation spotblot assay in SH-SY5Y cells stably expressing 3xFlag-LRRK2; assay type: cell-based; conditions: for Phosphorylation level relative to solvent (%) (cellular pS935 assay): @ 5 μM for 2 h, SH-SY5Y stably expressing LRRK2, pS935/total LRRK2
# T2 construct: expressed in transfected cells
# T2 sequence (Q5S007 whole entry): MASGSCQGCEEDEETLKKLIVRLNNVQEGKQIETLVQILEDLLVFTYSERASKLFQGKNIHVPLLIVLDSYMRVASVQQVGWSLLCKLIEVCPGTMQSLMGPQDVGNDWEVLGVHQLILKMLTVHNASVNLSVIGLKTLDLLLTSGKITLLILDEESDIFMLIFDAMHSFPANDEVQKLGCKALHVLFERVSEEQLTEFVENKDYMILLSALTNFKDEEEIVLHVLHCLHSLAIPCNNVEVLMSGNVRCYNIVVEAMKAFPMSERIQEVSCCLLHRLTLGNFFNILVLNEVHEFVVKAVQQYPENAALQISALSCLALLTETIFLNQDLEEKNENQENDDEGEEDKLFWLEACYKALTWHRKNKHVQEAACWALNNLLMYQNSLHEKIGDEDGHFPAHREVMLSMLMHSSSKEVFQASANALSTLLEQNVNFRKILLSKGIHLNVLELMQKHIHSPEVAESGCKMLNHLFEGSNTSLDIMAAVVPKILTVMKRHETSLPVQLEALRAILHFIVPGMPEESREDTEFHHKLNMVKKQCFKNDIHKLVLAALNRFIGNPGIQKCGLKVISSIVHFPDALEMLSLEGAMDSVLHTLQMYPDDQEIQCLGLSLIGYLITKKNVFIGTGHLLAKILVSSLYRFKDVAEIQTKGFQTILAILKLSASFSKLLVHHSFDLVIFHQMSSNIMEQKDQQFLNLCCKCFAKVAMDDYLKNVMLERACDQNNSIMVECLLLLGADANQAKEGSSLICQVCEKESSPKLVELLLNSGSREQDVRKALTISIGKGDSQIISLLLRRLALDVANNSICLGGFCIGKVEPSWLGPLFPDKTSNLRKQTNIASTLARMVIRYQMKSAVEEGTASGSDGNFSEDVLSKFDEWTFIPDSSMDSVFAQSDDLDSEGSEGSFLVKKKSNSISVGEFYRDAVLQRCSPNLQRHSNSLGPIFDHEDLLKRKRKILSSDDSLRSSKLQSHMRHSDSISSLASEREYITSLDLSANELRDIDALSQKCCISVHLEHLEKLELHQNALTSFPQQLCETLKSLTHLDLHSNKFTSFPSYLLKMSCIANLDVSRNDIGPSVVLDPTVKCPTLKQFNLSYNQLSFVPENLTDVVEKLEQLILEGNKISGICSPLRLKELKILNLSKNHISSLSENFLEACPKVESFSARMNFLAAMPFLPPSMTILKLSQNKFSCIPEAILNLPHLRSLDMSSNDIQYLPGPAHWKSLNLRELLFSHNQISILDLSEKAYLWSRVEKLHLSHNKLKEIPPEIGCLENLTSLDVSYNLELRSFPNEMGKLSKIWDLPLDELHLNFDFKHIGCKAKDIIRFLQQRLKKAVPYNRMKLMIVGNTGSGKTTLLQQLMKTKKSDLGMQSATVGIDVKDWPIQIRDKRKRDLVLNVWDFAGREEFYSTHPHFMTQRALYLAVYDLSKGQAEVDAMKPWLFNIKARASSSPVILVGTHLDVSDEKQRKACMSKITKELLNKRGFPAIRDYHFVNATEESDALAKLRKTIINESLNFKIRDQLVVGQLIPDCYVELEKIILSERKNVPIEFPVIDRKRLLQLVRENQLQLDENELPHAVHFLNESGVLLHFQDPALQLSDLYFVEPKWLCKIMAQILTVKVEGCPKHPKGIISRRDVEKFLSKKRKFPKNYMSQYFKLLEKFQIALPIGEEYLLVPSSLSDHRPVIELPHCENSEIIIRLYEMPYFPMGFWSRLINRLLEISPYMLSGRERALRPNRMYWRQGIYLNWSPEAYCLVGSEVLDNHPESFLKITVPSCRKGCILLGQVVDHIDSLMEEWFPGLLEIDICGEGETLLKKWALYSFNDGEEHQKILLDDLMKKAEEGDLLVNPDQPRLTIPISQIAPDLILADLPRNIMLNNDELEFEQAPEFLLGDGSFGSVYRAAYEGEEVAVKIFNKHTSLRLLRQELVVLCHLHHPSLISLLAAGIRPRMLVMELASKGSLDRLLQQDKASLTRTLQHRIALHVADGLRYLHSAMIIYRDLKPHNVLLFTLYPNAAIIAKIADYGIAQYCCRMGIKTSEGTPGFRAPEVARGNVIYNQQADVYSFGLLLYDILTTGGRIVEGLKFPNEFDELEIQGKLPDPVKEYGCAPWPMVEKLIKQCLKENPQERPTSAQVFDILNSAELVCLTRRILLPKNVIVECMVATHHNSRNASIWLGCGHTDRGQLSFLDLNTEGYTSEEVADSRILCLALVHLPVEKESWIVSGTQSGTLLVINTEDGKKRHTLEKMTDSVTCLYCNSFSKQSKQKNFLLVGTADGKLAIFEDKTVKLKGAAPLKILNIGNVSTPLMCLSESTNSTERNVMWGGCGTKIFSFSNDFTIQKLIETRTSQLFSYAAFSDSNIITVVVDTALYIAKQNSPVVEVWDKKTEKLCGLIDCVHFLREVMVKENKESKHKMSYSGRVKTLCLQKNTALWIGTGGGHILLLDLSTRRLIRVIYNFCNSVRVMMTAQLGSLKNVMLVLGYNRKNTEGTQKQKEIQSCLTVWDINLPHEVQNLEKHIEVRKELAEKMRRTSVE
Molecule,% LRRKtide phosphorylation relative to solvent [1],Phosphorylation level relative to solvent (%) (cellular pS935 assay) [2],activity on LRRK2 kinase activity in vitro (in words) ([1]; no activity at 10 μM),"dephosphorylation of LRRK2 (Ser935) ([2]; 5 μM, 2 h, SH-SY5Y)"
Cn1c2ccccc2c2c3c(c4c5ccccc5n(CCC#N)c4c21)CNC3=O [Gö 6976],5.79%,56.41,–,–
O=C(c1cc2cc(O)ccc2[nH]1)c1cc2cc(O)ccc2[nH]1 [Flt-3 inhibitor II],2.16%,53.00,–,–
O=c1c(-c2ccc(F)cc2)c(-c2ccncc2)[nH]n1-c1ccc(Cl)cc1 [p38 MAP kinase inhibitor],132.68%,93.68,–,–
CN([C@@H](Cc1ccc(OS(=O)(=O)c2cccc3cnccc23)cc1)C(=O)N1CCN(c2ccccc2)CC1)S(=O)(=O)c1cccc2cnccc12 [KN-62],17.20%,84.73,–,–
O=C1Cc2c([nH]c3ccc([N+](=O)[O-])cc23)-c2ccccc2N1 [Alsterpaullone],31.34%,108.54,–,–
PI 3-KbInhibitor II,93.55%,66.60,–,–
Oc1ccc(Nc2nc(-c3ccc(Cl)cc3)cs2)cc1 [Sphingosine kinase inhibitor],106.21%,144.00,–,–
N#Cc1c(NC(=O)c2cccc3ccccc23)sc2c1CCCC2 [JNK inhibitor IX],61.45%,42.05,–,–
O=C1NC(=O)C(c2cn(CCCO)c3ncccc23)=C1c1cnccn1 [GSK-3b inhibitor XI],32.34%,87.77,–,–
"O=C(O)/C=C/c1cc(Br)c(Br)c(Br)c1Br [Casein kinase II inhibitor III, TBCA, TBCA]",16.78%,116.47,–,–
"COc1ccc(OC)c2c(=S)c3ccccc3[nH]c12 [Cdk4 inhibitor II, 625987, NSC 625987]",76.06%,70.36,–,–
N#C/C(=C(/N)SC1C=CC=CC1)c1cccc(C(O)c2ccncc2)c1 (stereo not shown) [MEK inhibitor I],124.71%,100.55,–,–
COc1cccc(-c2cc(=O)c3ccccc3o2)c1N [PD98059],92.53%,106.55,–,–
CNc1cc2c(Nc3cccc(Br)c3)ncnc2cn1 [PD 158780],6.06%,80.85,–,–
O=C1c2ccccc2-c2n[nH]c3cccc1c23 [JNK inhibitor II],2.32%,81.52,–,–
O=C1NC(=O)c2cc(Nc3ccc(F)cc3)c(Nc3ccc(F)cc3)cc21 [PKCbII/EGFR inhibitor],67.41%,56.68,–,–
O=C1NC(=O)C(c2c[nH]c3ccccc23)=C1c1c[nH]c2ccccc12 [Bisindolylmaleimide IV],3.07%,84.51,–,–
N#C/C(=C(/N)Sc1ccc(N)cc1)c1ccccc1C(F)(F)F [MEK 1/2 inhibitor],61.26%,117.92,–,–
COc1ccc2c(c[n+](C)c3c4cc5c(cc4ccc23)OCO5)c1OC [Chelerythrine chloride],77.91%,67.25,–,–
CN(C)CCCn1cc(C2=C(c3c[nH]c4ccccc34)C(=O)NC2=O)c2ccccc21 [Bisindolylmaleimide I],4.46%,73.14,–,–
COc1ccc(Cl)cc1NC(=O)Nc1cc(C)nc2ccccc12 [IGF-1R inhibitor II],93.23%,80.40,–,–

Molecule,% LRRKtide phosphorylation relative to solvent [1],Phosphorylation level relative to solvent (%) (cellular pS935 assay) [2],activity on LRRK2 kinase activity in vitro (in words) ([1]; no activity at 10 μM),"dephosphorylation of LRRK2 (Ser935) ([2]; 5 μM, 2 h, SH-SY5Y)"
O=C(Nc1cccc(Nc2nccc(Nc3cccc(C(F)(F)F)c3)n2)c1)C1CC1 [Aurora kinase inhibitor III],83.96% and 44.16%,–,inactive,~ 50%
NCCNc1ncc(C(N)=O)c(Nc2cccc(C(F)(F)F)c2)n1 [Syk inhibitor II],3.50%,76.71,–,–
"COC(=O)[C@@]1(O)C[C@H]2O[C@]1(C)n1c3ccccc3c3c4c(c5c6ccccc6n2c5c31)C(=O)NC4 [K-252a, Nocardiopsis sp., K-252a]",1.13%,72.18,–,–
COc1ccc(S(=O)(=O)N(CCO)c2ccccc2CN(C)C/C=C/c2ccc(Cl)cc2)cc1 [KN-93],120.59%,102.70,–,–
COc1ccc2c(c1)c(C1=C(c3c[nH]c4ccccc34)C(=O)NC1=O)cn2CCCN(C)C [Gö 6983],3.04%,70.11,–,–
COc1cc2nccc(Oc3ccc(NC(=S)NC(=O)c4ccccc4C)cc3)c2cc1OC [PDGF RTK inhibitor],34.30%,77.68,–,–
O=C(NC(NC(=S)Nc1ccc(F)c([N+](=O)[O-])c1)C(Cl)(Cl)Cl)C(c1ccccc1)c1ccccc1 (stereo not shown) [ATM/ATR kinase inhibitor],131.38%,88.64,–,–
"CCCCc1c(-c2ccc(O)cc2)[nH]c2nccnc12 [Aloisine A, RP107, Aloisine A]",23.85%,102.87,–,–
"O=S(=O)(c1cccc2cnccc12)N1CCCNCC1 [HA 1077, Dihydrochloride Fasudil, Fasudil]",79.40%,89.37,–,–
"NC(=O)c1ccc(-c2nc(-c3ccc4c(c3)OCCO4)c(-c3ccccn3)[nH]2)cc1 [Casein kinase I inhibitor, D4476, D4476]",60.00%,97.88,–,–
COc1cc2c(cc1OC)-c1[nH]nc(Nc3cccc(F)c3)c1C2 [PDGF receptor tyrosine kinase inhibitor IV],23.12%,57.30,–,–
Cc1cncc2cccc(S(=O)(=O)N3CCCN(C(=O)CN)C[C@@H]3C)c12 [Rho kinase inhibitor IV],10.29%,59.98,–,–
C[S+]([O-])c1ccc(-c2nc(-c3ccncc3)c(-c3ccc(F)cc3)[nH]2)cc1 (stereo not shown) [SB 203580],100.48%,90.32,–,–
COc1cc2ncc(-c3ccccc3)nc2cc1OC [AG 1296],22.76%,50.93,–,–
CC(C)(C)c1cc(C=C(C#N)C#N)cc(Br)c1O [AG 1024],51.38%,94.37,–,–
Cn1sc(=O)n(Cc2ccccc2)c1=O [GSK-3b inhibitor I],106.35%,95.90,–,–
Ic1cccc(CSc2nnc(-c3ccncc3)o2)c1 [GSK-3b inhibitor II],100.90%,84.51,–,–
Cc1ccc(NC2=CC(=O)c3sc(C)nc3C2=O)cc1 [Cdk4 inhibitor III],26.80%,48.63,–,–
N#CC(c1ccnc(NCCc2cccnc2)n1)c1nc2ccccc2s1 (stereo not shown) [JNK inhibitor V],37.61%,71.85,–,–
Nc1ncnc2n[nH]c(Nc3ccc(F)cc3)c12 [MNK1 inhibitor],12.59%,70.32,–,–
O=C(Nc1ccc(Cl)cc1)c1ccccc1NCc1ccncc1 [VEGF receptor tyrosine kinase inhibitor II],91.34%,65.97,–,–

# Reference: paper PMC4042160, “In silico, in vitro and cellular analysis with a kinome-wide inhibitor panel correlates cellular LRRK2 dephosphorylation to inhibitor activity on LRRK2” (Frontiers in Molecular Neuroscience, 2014)
